# Experimental data reported in patent US20230346853A1, “Probiotic Lyophilizate Reactivation Composition for Improving Intestinal Survivability and Adhesion of Probiotics” (COSMAX NBT, INC., priority 2021, published 2023).
# Like-named read-outs stand apart in the source and are kept apart here.
# Assays:
# Type in all cases: cell-based
# [1] = system: Lactobacillus plantarum HAC03; assay: Zeta potential of lyophilized probiotics mixed with single ingredients (screening); conditions: 0.1 M ingredient, rehydrated 1 min, pH 2.5
# Procedure: In this experimental example, Lactobacillus plantarum HAC03 (accession number: KCTC13242BP, the Korean Research Institute of Bioscience and Biotechnology) (hereinafter referred to as “HAC03”), which was described in Korean Patent Application No. 10-2017-0051574, was used as a probiotic strain.
# Afterwards, 2 mL of pH 2.5 distilled water was added to each sample, the pH was re-adjusted using HCl 0.1 N, and 800 μl of the calibrated sample was loaded in DTS1080 cuvettes. The electrophoretic mobility was measured by the Zetaizer Nano ZEN 3600 (Malvern Panalytica, UK) after 2 minutes of equilibration and the Smoluchowski equation was used to convert the data into zetapotential values.
# In this experiment, zeta potentials were measured at a pH of 2.5 in consideration of the highly acidic stomach environment, which is one of the initial hurdles that drastically reduce the survivability of the bacteria.
# [2] = system: Lactobacillus plantarum HAC03; assay: in vitro Simulated Stomach Duodenum Passage (SSDP) probiotic survivability, lyophilized HAC03; conditions: for viability at 100000 µM: Lactiplantibacillus plantarum
# Procedure: The HAC03 strain was mixed with each of the single compositions and 1 mL of distilled water for 1 min. The compositions were formulated to have a final concentration of 0.1 M when dissolved in 1 ml of distilled water. Thereafter, 9 mL of distilled water adjusted to have a pH of 2.5 was added to each mixture. The pH was readjusted back to 2.5 in case of an increased pH due to the nature of some of the single ingredients (in order to not affect the survival of the probiotics). After adjusting the pH to 2.5, the tubes were incubated at 37° C. for 1 hour to apply the low-pH gastric stress condition. […] During the gastrointestinal tract assay, the samples were taken immediately, 1 hour, and […] after the incubation (t=0, 1, and 2). The probiotic survivability of each sample after gastric stress and bile stress was calculated by counting viable colonies.
# [3] = system: Lactobacillus casei Lc-11; assay: Bacterial adhesion to human enterocyte-like Caco-2/TC-7 cell line, lyophilized Lc-11; conditions: 0.03 M, compared to the freeze-dried form
# From the text: (§1) An examination was made to see whether the effect of reactivating lyophilized probiotics is applicable to various strains in this experimental example. In this regard, lyophilized Bifidobacterium longum Bl-05 (Dupont; hereinafter referred to as “Bl-05”), Lactobacillus plantarum Lp-115 (Dupont; hereinafter referred to as “Lp-115”), Lactobacillus casei Lc-11 (Dupont; hereinafter referred to as “Lc-11”), and 7-strain mixture (400B) (Dupont; hereinafter referred to as “MIX”) were reactivated with L-lysine and then assayed for their ability to adhere to the human enterocyte-like Caco-2/TC-7 cell line.
# (§2) Lyophilizates of the three strains and the 7-strain mix were adjusted to 2×10^8 CFU/g and mixed with 0.03 M L-lysine or 0.03 M proline. The pellets were washed three time with 1× PBS and resuspended in 10 ml MEM cell culture media supplemented with 20% FBS, 2 mM glutamine, and 1% non-essential amino acids. A bacterial adhesion assay was performed according to the method of Botes et al. (Arch. Microbiol, 190 (2008), pp. 573-584) with some modifications. […] To quantify the number of bacteria attached to Caco-2/TC-7 cells, the samples were serially diluted, incubated on MRS agar plates for 48 hours (37° C.), and then counted to measure relative adhesion ratio (counts of attached bacteria in test groups to counts of attached bacteria in the control). […]
# [4] = system: Bifidobacterium longum Bl-05; assay: Bacterial adhesion to human enterocyte-like Caco-2/TC-7 cell line, lyophilized Bl-05; conditions: 0.03 M, compared to the freeze-dried form
# From the text: as §1, §2
# [5] = system: Lactobacillus plantarum Lp-115; assay: Bacterial adhesion to human enterocyte-like Caco-2/TC-7 cell line, lyophilized Lp-115; conditions: 0.03 M; L-lysine compared to the freeze-dried form, proline compared to L-lysine-reactivated
# From the text: as §1, §2
# [6] = system: 7-strain mixture (400B); assay: Bacterial adhesion to human enterocyte-like Caco-2/TC-7 cell line, lyophilized 7-strain mixture; conditions: 0.03 M, compared to the freeze-dried form
# From the text: as §1, §2
structure (smiles),measurement,setting,value
"Cl.NCCCC[C@H](N)C(=O)O [L-Lysine hydrochloride, L-lysine hydrochloride]","zeta potential of lyophilized HAC03 mixed with the ingredient (sign, FIG. 1)",[1],negative zeta potentials
same,viability at 100000 µM,"[2]; HAC03, 1 h, pH 2.5, read-out: Stomach Survivability (%)",85.2%
same,viability at 100000 µM,"[2]; HAC03, 2 h, pH 6, read-out: Duodenum Survivability (%)",48.4%
same,Stomach log CFU/mL,"[2]; Table 1, 0.1 M ingredient, pH 2.5, 37° C., 1 hour",7.87 ± 0.07 log CFU/mL
same,Duodenum log CFU/mL,"[2]; Table 1, 0.1 M ingredient, then bile salts (10% ox gall) and pH 6.0 synthetic duodenum juice, 2 hours",7.62 ± 0.09 log CFU/mL
same,intestinal survivability (acid resistance and bile resistance) in words,"[2]; Table 1, compared to fresh bacteria / distilled water",increased in acid resistance and bile resistance
same,"bacterial cell adhesion to Caco-2/TC-7 (FIGS. 2A and 2E), in words",[3],significantly increased bacterial cell adhesion
same,"bacterial cell adhesion to Caco-2/TC-7 (FIGS. 2B and 2F), in words",[4],significantly increased bacterial cell adhesion
same,"bacterial cell adhesion to Caco-2/TC-7 (FIGS. 2C and 2G), in words",[5],significantly increased bacterial cell adhesion
same,"bacterial cell adhesion to Caco-2/TC-7 (FIGS. 2D and 2H), in words",[6],significantly increased bacterial cell adhesion
